Drawing on publication PMC4711283, “Immobilization of halophilic Aspergillus awamori EM66 exochitinase on grafted k-carrageenan-alginate beads” (3 Biotech, 2016), this text covers Km for one compound.

This test concerns T1, A. awamori EM66 exochitinase.
T1 construct: native secreted enzyme from culture supernatant of honey isolate, partially purified by ethanol fractionation, free (not immobilised)
The test can be described thus: p-nitrophenol release at […] nm, Lineweaver-Burk plot. The test is classed as biochemical, Aspergillus awamori. The note with it: free enzyme, partially purified; acetate buffer pH 5.0; 30 °C; apparent Km.

As to `CC(=O)N[C@H]1[C@H](Oc2ccc([N+](=O)[O-])cc2)O[C@H](CO)[C@@H](O)[C@@H]1O` [PNP-β-GlcNAc, p-nitrophenyl-β-D-N-acetyl glucoseaminide], the Km stood at 0.33 mg/mL.

By Km is commonly meant the substrate concentration at which the rate is half of its maximum.
